Data: patent US10618918B2, “Substituted boronic acids as antimicrobials” (priority 2015, dated 2020)
Read-outs that look alike come from different tables or passages of the source.

Legend:
KP1005 CTX-M-14 = assay: Tigemonam potentiation (MPC@4), strain KP1005 CTX-M-14; conditions: minimum BLI concentration inhibiting growth with tigemonam 4 μg/mL; tested up to 40 μg/mL
AB1053 OXA-72 = assay: Meropenem potentiation (MPC@8), strain AB1053 OXA-72; assay type: cell-based, Acinetobacter baumannii; conditions: minimum BLI concentration inhibiting growth with meropenem 8 μg/mL; tested up to 20 μg/mL
KP1004 KPC-2 [1] = assay: Biapenem potentiation (MPC@1), strain KP1004 KPC-2; assay type: cell-based; conditions: minimum BLI concentration inhibiting growth with biapenem 1 μg/mL; tested up to 40 μg/mL
Description: (§1) Biapenem was present in the test medium at 1 μg/mL. […] Table 3 summarizes the BLI potency of biapenem potentiation (MPC@1) for two strains overexpressing class A (KPC) and class D (OXA-48) carbapenemases. Biapenem MIC for each strain is also shown.

KP1086 OXA-48 = assay: Biapenem potentiation (MPC@1), strain KP1086 OXA-48; assay type: cell-based; conditions: minimum BLI concentration inhibiting growth with biapenem 1 μg/mL; tested up to 40 μg/mL
Description: as §1

KP1010 SHV-12 = assay: Aztreonam potentiation (MPC@4), strain KP1010 SHV-12; conditions: minimum BLI concentration inhibiting growth with aztreonam 4 μg/mL; tested up to 40 μg/mL
ECL1002 = assay: Aztreonam potentiation (MPC@4), strain ECL1002; conditions: minimum BLI concentration inhibiting growth with aztreonam 4 μg/mL; tested up to 40 μg/mL
KP1004 KPC-2 [2] = assay: Aztreonam potentiation (MPC@4), strain KP1004 KPC-2; conditions: minimum BLI concentration inhibiting growth with aztreonam 4 μg/mL; tested up to 40 μg/mL
ec308 SHV-5 = assay: Aztreonam potentiation (MPC@4), strain ec308 SHV-5; conditions: minimum BLI concentration inhibiting growth with aztreonam 4 μg/mL; tested up to 40 μg/mL
AB1054 OXA-23 = assay: Meropenem potentiation (MPC@8), strain AB1054 OXA-23; assay type: cell-based, Acinetobacter baumannii; conditions: minimum BLI concentration inhibiting growth with meropenem 8 μg/mL; tested up to 20 μg/mL
EC1010 CMY-6 = assay: Aztreonam potentiation (MPC@4), strain EC1010 CMY-6; conditions: minimum BLI concentration inhibiting growth with aztreonam 4 μg/mL; tested up to 40 μg/mL
KP1009 CTX-M-15 = assay: Aztreonam potentiation (MPC@4), strain KP1009 CTX-M-15; conditions: minimum BLI concentration inhibiting growth with aztreonam 4 μg/mL; tested up to 40 μg/mL
ec302 TEM-10 = assay: Aztreonam potentiation (MPC@4), strain ec302 TEM-10; conditions: minimum BLI concentration inhibiting growth with aztreonam 4 μg/mL; tested up to 40 μg/mL
[3] = target: purified class A, C and D enzymes (β-lactamases) (Escherichia coli, UniProt Q9L5C7); assay: biochemical; assay type: biochemical; conditions: purified CTX-M-14; nitrocefin (NCF) as reporter substrate
purified class A, C and D enzymes (β-lactamases) (Escherichia coli, UniProt Q9L5C7), sequence (Q9L5C7 entry or part of it): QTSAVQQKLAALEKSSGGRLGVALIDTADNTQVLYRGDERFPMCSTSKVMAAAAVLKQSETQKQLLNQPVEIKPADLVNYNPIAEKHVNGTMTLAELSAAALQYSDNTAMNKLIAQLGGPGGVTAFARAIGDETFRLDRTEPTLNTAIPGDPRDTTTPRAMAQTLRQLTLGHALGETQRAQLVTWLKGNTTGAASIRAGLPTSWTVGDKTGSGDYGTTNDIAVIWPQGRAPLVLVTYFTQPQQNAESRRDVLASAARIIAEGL

[4] = target: T1, purified class A, C and D enzymes (β-lactamases) (UniProt P0AD64, L31Q/G234S/E235K, species not given); assay: biochemical; assay type: biochemical
T1 construct: Ki (SHV-12, NCF), uM; other: purified SHV-12; nitrocefin (NCF) as reporter substrate
T1 sequence (P0AD64 1-286 L31Q/G234S/E235K): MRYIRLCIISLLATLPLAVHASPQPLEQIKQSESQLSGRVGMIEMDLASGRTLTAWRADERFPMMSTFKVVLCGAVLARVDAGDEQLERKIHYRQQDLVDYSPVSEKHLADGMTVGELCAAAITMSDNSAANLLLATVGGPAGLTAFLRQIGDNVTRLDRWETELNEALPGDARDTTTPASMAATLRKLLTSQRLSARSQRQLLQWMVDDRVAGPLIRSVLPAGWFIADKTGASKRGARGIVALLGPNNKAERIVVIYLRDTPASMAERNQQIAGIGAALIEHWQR

[5] = target: T2, purified class A, C and D enzymes (β-lactamases) (Acinetobacter baumannii, UniProt Q9L4P2); assay: biochemical; assay type: biochemical; conditions: purified OXA-23; nitrocefin (NCF) as reporter substrate
T2 construct: rows headed: Ki (OXA-23, NCF), uM; other: purified OXA-23; nitrocefin (NCF) as reporter substrate
T2 sequence (Q9L4P2 whole entry): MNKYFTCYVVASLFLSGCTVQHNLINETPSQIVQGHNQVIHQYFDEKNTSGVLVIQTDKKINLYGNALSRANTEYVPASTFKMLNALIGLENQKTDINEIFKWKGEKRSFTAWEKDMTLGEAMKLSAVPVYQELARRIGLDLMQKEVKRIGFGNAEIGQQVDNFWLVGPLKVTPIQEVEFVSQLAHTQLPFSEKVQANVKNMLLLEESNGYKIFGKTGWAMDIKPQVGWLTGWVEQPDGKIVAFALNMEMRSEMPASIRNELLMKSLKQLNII

[6] = target: purified class A, C and D enzymes (β-lactamases) (Klebsiella pneumoniae, UniProt Q6XEC0); assay: biochemical; assay type: biochemical; conditions: purified OXA-48; nitrocefin (NCF) as reporter substrate
[7] = target: purified class A, C and D enzymes (β-lactamases) (Enterobacter cloacae, UniProt P05364); assay: biochemical; assay type: biochemical
purified class A, C and D enzymes (β-lactamases) (Enterobacter cloacae, UniProt P05364), sequence (P05364 21-381): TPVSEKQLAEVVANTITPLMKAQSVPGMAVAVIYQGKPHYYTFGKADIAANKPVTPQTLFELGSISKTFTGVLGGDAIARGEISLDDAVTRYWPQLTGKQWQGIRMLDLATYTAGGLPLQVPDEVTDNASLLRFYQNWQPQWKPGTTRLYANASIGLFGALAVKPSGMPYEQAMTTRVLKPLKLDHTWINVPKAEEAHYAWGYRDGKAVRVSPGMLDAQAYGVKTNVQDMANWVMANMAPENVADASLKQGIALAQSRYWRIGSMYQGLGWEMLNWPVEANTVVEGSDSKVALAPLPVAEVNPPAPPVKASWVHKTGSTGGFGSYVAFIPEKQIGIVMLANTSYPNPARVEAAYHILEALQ

[8] = target: T3, purified class A, C and D enzymes (β-lactamases) (Pseudomonas aeruginosa, UniProt P24735); assay: biochemical; assay type: biochemical
T3 construct: rows headed: Ki (Pa-AmpC, NCF), uM; other: purified Pa-AmpC; nitrocefin (NCF) as reporter substrate
T3 sequence (P24735 whole entry): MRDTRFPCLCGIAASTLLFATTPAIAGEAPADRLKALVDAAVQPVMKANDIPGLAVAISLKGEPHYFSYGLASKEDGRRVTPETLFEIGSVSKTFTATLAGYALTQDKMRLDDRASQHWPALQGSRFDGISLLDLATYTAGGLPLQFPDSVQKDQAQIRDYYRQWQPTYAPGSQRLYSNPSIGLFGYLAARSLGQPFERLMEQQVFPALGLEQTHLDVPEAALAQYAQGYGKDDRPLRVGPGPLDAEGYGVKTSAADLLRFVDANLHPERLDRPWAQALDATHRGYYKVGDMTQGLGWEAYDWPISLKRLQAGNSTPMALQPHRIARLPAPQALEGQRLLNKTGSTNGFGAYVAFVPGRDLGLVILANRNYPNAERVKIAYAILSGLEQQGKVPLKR

[9] = target: purified class A, C and D enzymes (β-lactamases) (Klebsiella pneumoniae, UniProt Q9F663); assay: biochemical; assay type: biochemical; conditions: purified KPC-2; nitrocefin (NCF) as reporter substrate
[10] = read-out: Ki (SHV-12, NCF); purified SHV-12; nitrocefin (NCF) as reporter substrate
[11] = purified SHV-12; nitrocefin (NCF) as reporter substrate; read-out: Ki (SHV-12, NCF)
[12] = purified P99, nitrocefin (NCF) as reporter substrate
[13] = purified Pa-AmpC, nitrocefin (NCF) as reporter substrate, read-out: Ki (Pa-AmpC, NCF)

| SMILES | TIG MPC4 CTX-M-14 KP1005 (KP1005 CTX-M-14) | MPM MPC8 AB1053 OXA-72 (AB1053 OXA-72) | BPM MPC1 KP1004 KPC-2 (KP1004 KPC-2 [1]) | BPM MPC1 OXA-48 KP1086 (KP1086 OXA-48) | AZT MPC4 SHV-12 KP1010 (KP1010 SHV-12) | AZT MPC4 ECL1002 (ECL1002) | AZT MPC4 KPC-2 KP1004 (KP1004 KPC-2 [2]) | AZT MPC4 SHV-5 ec308 (ec308 SHV-5) | MPM MPC8 AB1054 OXA-23 (AB1054 OXA-23) | AZT MPC4 CMY-6 EC1010 (EC1010 CMY-6) | AZT MPC4 CTX-M-15 KP1009 (KP1009 CTX-M-15) | AZT MPC4 TEM-10 ec302 (ec302 TEM-10) | Ki (CTX-M-14, NCF), uM [3] | Ki [4, 10] [nM] | Ki [5] [nM] | Ki (OXA-48, NCF), uM [6] | Ki (P99, NCF), uM [7] | Ki [8] [nM] | Ki (KPC-2, NCF), uM [9] | Ki [4, 11] [nM] | other results |
| --- | --- | --- | --- | --- | --- | --- | --- | --- | --- | --- | --- | --- | --- | --- | --- | --- | --- | --- | --- | --- | --- |
| C[C@@H]1Cc2cccc(C(=O)[O-])c2O[B-]1(O)O.[Na+].[Na+] [Compound 10, Disodium; (3R)-4,4-dihydroxy-3-methyl-5-oxa-4-boranuidabicyclo[4.4.0]deca-1(6),7,9-triene-7-carboxylate] | Z (Z = MPC@4 > 20 μg/mL) | Z (Z = MPC@1 > 20 μg/mL) | X (X = MPC@1 ≤ 5 μg/mL) | Y (Y = 5 μg/mL < MPC@1 ≤ 20 μg/mL) | Y (Y = 5 μg/mL < MPC@4 ≤ 20 μg/mL) | Z (Z = MPC@4 > 20 μg/mL) | Y (Y = 5 μg/mL < MPC@4 ≤ 20 μg/mL) | Z (Z = MPC@4 > 20 μg/mL) | Z (Z = MPC@1 > 20 μg/mL) | Z (Z = MPC@4 > 20 μg/mL) | Z (Z = MPC@4 > 20 μg/mL) | Z (Z = MPC@4 > 20 μg/mL) | X (X = Ki ≤ 0.1 μM) | 100 to 1000 | > 1000 | X (X = Ki ≤ 0.1 μM) | Y (key: X = Ki ≤ 0.1 μM; Y = 0.1 μM < Ki ≤ 1 μM; Z = Ki > 1 μM) | < 100 | X (X = Ki ≤ 0.1 μM) | – | – |
| C#CCOc1ccc2c(c1C(=O)O)OB(O)CC2 [Compound 25, 2-Hydroxy-7-prop-2-ynoxy-3,4-dihydro-1,2-benzoxaborinine-8-carboxylic acid] | Z (Z = MPC@4 > 20 μg/mL) | X (X = MPC@1 ≤ 5 μg/mL) | X (X = MPC@1 ≤ 5 μg/mL) | X (X = MPC@1 ≤ 5 μg/mL) | X (X = MPC@4 ≤ 5 μg/mL) | X (X = MPC@4 ≤ 5 μg/mL) | X (X = MPC@4 ≤ 5 μg/mL) | X (X = MPC@4 ≤ 5 μg/mL) | X (X = MPC@1 ≤ 5 μg/mL) | X (X = MPC@4 ≤ 5 μg/mL) | X (X = MPC@4 ≤ 5 μg/mL) | X (X = MPC@4 ≤ 5 μg/mL) | X (X = Ki ≤ 0.1 μM) | – | < 100 | X (X = Ki ≤ 0.1 μM) | – | – | X (X = Ki ≤ 0.1 μM) | < 100 | Ki (P99, NCF), uM [7, 12]: X (X = Ki ≤ 0.1 μM); Ki [8, 13]: < 100 nM |
| C[C@H]1Cc2cccc(C(=O)O)c2O[B-]1(O)O [Compound 9, Disodium; (3S)-4,4-dihydroxy-3-methy-5-oxa-4-boranuidabicyclo[4.4.0]deca-1(6),7,9-triene-7-carboxylate] | Z (Z = MPC@4 > 20 μg/mL) | Z (Z = MPC@1 > 20 μg/mL) | X (X = MPC@1 ≤ 5 μg/mL) | X (X = MPC@1 ≤ 5 μg/mL) | Y (Y = 5 μg/mL < MPC@4 ≤ 20 μg/mL) | Y (Y = 5 μg/mL < MPC@4 ≤ 20 μg/mL) | X (X = MPC@4 ≤ 5 μg/mL) | Y (Y = 5 μg/mL < MPC@4 ≤ 20 μg/mL) | Z (Z = MPC@1 > 20 μg/mL) | Y (Y = 5 μg/mL < MPC@4 ≤ 20 μg/mL) | Z (Z = MPC@4 > 20 μg/mL) | Z (Z = MPC@4 > 20 μg/mL) | X (X = Ki ≤ 0.1 μM) | – | 100 to 1000 | X (X = Ki ≤ 0.1 μM) | – | – | X (X = Ki ≤ 0.1 μM) | 100 to 1000 | Ki (P99, NCF), uM [7, 12]: X (X = Ki ≤ 0.1 μM); Ki [8, 13]: < 100 nM |
| NCCn1cc(COc2ccc3c(c2C(=O)O)O[B-](O)(O)CC3)nn1 [Compound 23, Disodium; 8-[[1-(2-aminoethyl)triazol-4-yl]methoxy]-4,4-dihydroxy-5-oxa-4-boranuidabicyclo[4.4.0]deca-1(6),7,9-triene-7-carboxylate] | Z (Z = MPC@4 > 20 μg/mL) | X (X = MPC@1 ≤ 5 μg/mL) | X (X = MPC@1 ≤ 5 μg/mL) | X (X = MPC@1 ≤ 5 μg/mL) | X (X = MPC@4 ≤ 5 μg/mL) | X (X = MPC@4 ≤ 5 μg/mL) | X (X = MPC@4 ≤ 5 μg/mL) | Y (Y = 5 μg/mL < MPC@4 ≤ 20 μg/mL) | X (X = MPC@1 ≤ 5 μg/mL) | X (X = MPC@4 ≤ 5 μg/mL) | X (X = MPC@4 ≤ 5 μg/mL) | X (X = MPC@4 ≤ 5 μg/mL) | X (X = Ki ≤ 0.1 μM) | < 100 | < 100 | X (X = Ki ≤ 0.1 μM) | X (key: X = Ki ≤ 0.1 μM; Y = 0.1 μM < Ki ≤ 1 μM; Z = Ki > 1 μM) | < 100 | X (X = Ki ≤ 0.1 μM) | – | – |
